Where two headings read alike, the source gives them in different places.
Assays:
Thrombin receptor = target: T1, Thrombin receptor (Homo sapiens, UniProt P25116); test: In vitro Thrombin Receptor Antagonist Assay ([3H]haTRAP radioligand binding, platelet membranes); conditions: [3H]haTRAP 10 nM, read-out: IC50 (concentration at which a 50% inhibition of thrombin receptor was observed)
T1 construct: Platelet membranes were prepared using a modification of the method of Natarajan et al; tissue North Jersey Blood Center (East Orange, N.J.); host or cells: platelets (platelet concentrates), membranes
T1 sequence (P25116 22-425): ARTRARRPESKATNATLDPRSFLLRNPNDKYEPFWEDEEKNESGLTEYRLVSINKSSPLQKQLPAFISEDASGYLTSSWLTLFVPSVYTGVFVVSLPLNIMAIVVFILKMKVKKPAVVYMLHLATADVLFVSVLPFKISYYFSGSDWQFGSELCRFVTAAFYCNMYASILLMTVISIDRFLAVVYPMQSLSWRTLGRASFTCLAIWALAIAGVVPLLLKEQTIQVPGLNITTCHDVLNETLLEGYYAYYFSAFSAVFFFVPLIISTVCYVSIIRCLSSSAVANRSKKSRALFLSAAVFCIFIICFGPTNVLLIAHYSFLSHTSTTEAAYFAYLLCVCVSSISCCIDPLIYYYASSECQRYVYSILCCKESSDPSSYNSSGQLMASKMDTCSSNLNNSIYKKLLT
Experimental: In Vitro Testing Procedure for Thrombin Receptor Antagonists:
Preparation of [^3 H]haTRAP
The vessel was attached to the tritium line, frozen in liquid nitrogen and evacuated. […] At the completion of the reaction, the excess tritium was removed and the reacted peptide solution was diluted with DMF (0.5 ml) and filtered to remove the catalyst. The collected DMF solution of the crude peptide was diluted with water and freeze dried to remove the labile tritium. The solid peptide was redissolved in water and the freeze drying process repeated. The tritiated peptide ([^3 H]haTRAP) was dissolved in 0.5 ml of 0.1% aqueous TFA and purified by HPLC using the following conditions: column, Vydac C18, 25 cm×9.4 mm I.D.; mobile phase, (A) 0.1% TFA in water, (B) 0.1% TFA in CH3 CN; gradient, (A/B) from 100/0 to 40/60 over 30 min; flow rate, 5 ml/min; detection, UV at 215 nm.
Preparation of platelet membranes
All steps were carried out at 4° C. under approved biohazard safety conditions. Platelets were centrifuged at 100×g for 20 minutes at 4° C. to remove red cells. The supernatants were decanted and centrifuged at 3000×g for 15 minutes to pellet platelets. Platelets were resuspended in 10 mM Tris-HCl, pH 7.5,150 mM NaCl, 5 mM EDTA, to a total volume of 200 ml and centrifuged at 4400×g for 10 minutes. This step was repeated two additional times. Platelets were resuspended in 5 mM Tris-HCl, pH 7.5, 5 mM EDTA to a final volume of approximately 30 ml and were homogenized with 20 strokes in a Dounce homogenizer. Membranes were pelleted at 41,000×g, resuspended in 40-50 ml 20 mM Tris-HCl, pH 7.5,1 mM EDTA, 0.1 mM dithiothreitol, and 10 ml aliquots were frozen in liquid N2 and stored at -80° C. To complete membrane preparation, aliquots were thawed, pooled, and homogenized with 5 strokes of a Dounce homogenizer. Membranes were pelleted and washed 3 times in 10 mM triethanolamine-HCl, pH 7.4, 5 mM EDTA, and resuspended in 20-25 ml 50 mM Tris-HCl, pH 7.5, 10 mM MgCl2, 1 mM EGTA, and 1% DMSO. Aliquots of membranes were frozen in liquid N2 and stored at -80° C.
High Throughput Thrombin Receptor Radioligand Binding Assay
Stock solutions (10 mM in 100% DMSO) of test compounds were further diluted in 100% DMSO. Unless otherwise indicated, 10 μl of diluted compound solutions and 90 μl of radioligand (a final concentration of 10 nM in 5% DMSO) were added to each well, and the reaction was started by the addition of 100 μl of membranes (40 μg protein/well). […] Compounds were tested at three concentrations (0.1, 1 and 10 μM). The plates were covered and vortex-mixed gently on a Lab-Line Titer Plate Shaker for 1 hour at room temperature. Packard UniFilter GF/C filter plates were soaked for at least 1 hour in 0.1% polyethyleneimine. The incubated membranes were harvested using a Packard FilterMate Universal Harvester and were rapidly washed four times with 300 μl ice cold 50 mM Tris-HCl, pH 7.5, 10 mM MgCl2, 1 mM EGTA. MicroScint 20 scintillation cocktail (25 μl) was added to each well, and the plates were counted in a Packard TopCount Microplate Scintillation Counter. The specific binding was defined as the total binding minus the nonspecific binding observed in the presence of excess (50 μM) unlabeled haTRAP. The % inhibition by a compound of [^3 H]haTRAP binding to thrombin receptors was calculated from the following relationship: […]
A(pF-F)R(ChA)(hR)Y--NH2 and A(pF-F)R(ChA)(hR)(I2 -Y)--NH2, were custom synthesized by AnaSpec Inc. (San Jose, Calif.). […] The gas was subsequently loaded and stored on an IN/US Systems Inc. Trisorber.

[1] = tested on: platelet aggregation (platelets, haTRAP or thrombin); test: In vitro Platelet Aggregation Inhibition (PAI); format: cell-based; conditions: Homo sapiens, read-out: In vitro PAI IC50
Experimental: In vitro Platelet Aggregation Procedure:
Blood was obtained from healthy human subjects who were aspirin free for at least 7 days by venipuncture using ACD as anticoagulant. Platelet rich plasma was prepared by centrifugation at 100×g for 15 minutes at 15 deg C. Platelets were pelleted at 3000×g and washed twice in buffered saline containing 1 mM EGTA and 20 μg/ml apyrase to inhibit aggregation. Aggregation was performed at room temperature in buffered saline supplemented with 0.2 mg/ml human fibrinogen. Test compound and platelets were preincubated in 96-well flat-bottom plates for 60 minutes. Aggregation was initiated by adding 0.3 μM haTRAP or 0.1 U/ml thrombin and rapidly vortexing the mixture using a Lab Line Titer Plate Shaker (speed 7). Percent aggregation was monitored as increasing light transmittance at 405 nm in a Spectromax Plate Reader.

[2] = tested on: platelet aggregation (Whole Blood, haTRAP); test: Ex-vivo Platelet Aggregation In Cynomolgus Whole Blood; set-up: species or system cynomolgus monkey
Experimental: Protocol For Ex-Vivo Platelet Aggregation In Cynomolgus Whole Blood Drug administration and blood collection:
Conscious chaired cynomolgus monkeys are allowed to equilibrate for 30 min. A needle catheter is inserted into a brachial vein for infusion of test drugs. Another needle catheter is inserted into the other brachial or saphenous vein and used for blood sampling. In those experiments where the compound is administered orally only one catheter is used. A baseline blood sample (1-2 ml) is collected in vacutainer tubes containing a thrombin inhibitor CVS 2139 (100 μg/0.1 ml saline) as an anticoaculant. The drug is then infused intravenously over a period of 30 min. Blood samples (1 ml) are collected at 5, 10, 20, 30 min during and 30, 60, 90 min after termination of the drug infusion. In PO experiments the animals are dosed with the drug using a gavage cannula. Blood samples are collected at 0, 30, 60, 90, 120, 180, 240, 300, 360 min after dosing. […]
A 0.5 ml blood sample is added to 0.5 ml of saline and warmed to 37° C. in a Chronolog whole blood aggregometer. […] The agonist (haTRAP) is added by an adjustable volume pipette (5-25 μl) and the aggregation curve is recorded for 10 minutes. Maximum aggregation in 6 minutes following agonist is the value recorded.

[3] = 0.3 μM haTRAP or 0.1 U/ml thrombin, 60 min preincubation

Row | Compound | IC50 (Thrombin receptor) | other results
1 | Cc1ccccc1-c1ccc(/C=C/[C@H]2[C@@H]3CCCC[C@H]3C[C@H]3C(=O)O[C@H](C)[C@@H]23)nc1 [Example 1DK] | 14 nM | –
2 | C[C@H]1OC(=O)[C@@H]2C[C@@H]3CCCC[C@H]3[C@H](/C=C/c3ccc4cc(O)ccc4n3)[C@H]12 [Example 1BN] | 6 nM | IC50 [1, 3]: 100 to 300 nM
3 | CNC(=O)C1Cc2ccccc2C(C=Cc2ccc(-c3cccc(C(F)(F)F)c3)cn2)C1CO (stereo not shown) [Example 7] | 1140 nM | –
4 | Cc1cc(C)nc(/C=C/[C@@H]2[C@H]3CCCC[C@@H]3C[C@@H]3C(=O)O[C@@H](C)[C@H]23)c1 [Example 1A] | 1600 nM | –
5 | CCc1cccc(/C=C/[C@H]2[C@@H]3CCCC[C@H]3C[C@H]3C(=O)O[C@H](C)[C@@H]23)n1 [Example 8, (+)-(3R,3aS,4S,4aR,8aS,9aR)-Decahydro-4-[(E)-2-(6-ethyl-2-pyridinyl)ethenyl]-3-methylnaphtho[2,3-c]furan-1(3H)-one] | – | IC50 [1]: 300 nM; Ex-vivo C. Monkey Whole Blood PAI ([2]; 10 mpk, i.v. infusion over 30 min. in 5% dextrose): 100%
6 | C[C@H]1OC(=O)[C@@H]2C[C@@H]3CCCC[C@H]3[C@H](/C=C/c3ccc(-c4cccc5c4OCO5)cn3)[C@H]12 [Example 1DR] | – | IC50 [1, 3]: 100 nM
7 | C[C@H]1OC(=O)[C@@H]2C[C@@H]3CCCC[C@H]3[C@H](/C=C/c3ccc(-c4cccc(C(F)(F)F)c4)cn3)[C@H]12 [Example 4, (+)-(3R,3aS,4S,4aR,8aS,9aR)-Decahydro-4-[(E)-2-[5-[3-(trifluoromethyl)phenyl]-2-pyridinyl]ethenyl]-3-Methylnaphtho-[2,3-c]furan-1(3H)-one] | – | IC50 [1]: 67 nM; Ex-vivo C. Monkey Whole Blood PAI ([2]; 3 mpk, oral in betahydroxypropylcyclodextrin as cosolvent): 100%

The next lines start with results.

Row | IC50 (Thrombin receptor) | Compound | other results
8 | 4 nM | C[C@H]1OC(=O)[C@@H]2C[C@@H]3CCCC[C@H]3[C@H](/C=C/c3ccc(-c4cc(C(F)(F)F)cc(C(F)(F)F)c4)cn3)[C@H]12 [Example 1ES] | –
9 | 10 nM | O=C1OCC2C1Cc1ccccc1C2C=Cc1ccc(-c2cccc(C(F)(F)F)c2)cn1 (stereo not shown) [Example 3K] | –
10 | 350 nM | Cc1cccc(/C=C/[C@H]2[C@H]3[C@H](C)OC(=O)[C@H]3C=C3CCCC[C@@H]32)n1 [Example 2E] | –

— patent US6326380A, “Thrombin receptor antagonists” (Schering Corporation, priority 2000, dated 2001)
